Values after ≈ are worked out from the molar mass of the structure shown.
Tests used:
[1] = test system: Microsporum canis; experiment: Antifungal activity against Microsporum canis; type: functional
[2] = test system: Aspergillus fumigatus; experiment: Antifungal activity measured against Aspergillus fumigatus; type: functional
[3] = test system: Trichophyton benhamiae; experiment: Antifungal activity measured against Trichophyton mentagrophytes; type: functional, Arthroderma benhamiae
[4] = test system: Candida parapsilosis; experiment: Antifungal activity against Candida parapsilosis.; type: functional; conditions: Lodderomyces parapsilosis
[5] = test system: Epidermophyton floccosum; experiment: Antifungal activity against Epidermophyton floccosum.; type: functional
[6] = test system: Sporothrix schenckii; experiment: Antifungal activity was measured against Sporothrix schenck ii.; type: functional
[7] = test system: Sporothrix schenckii; experiment: Antifungal activity measured against Sporothrix schenck ii.; type: functional
[8] = test system: Aspergillus fumigatus; experiment: Antifungal activity was measured against Aspergillus fumigatus; type: functional
[9] = test system: Trichophyton benhamiae; experiment: ~ Antifungal activity was measured against Trichophyton mentagrophytes.; type: functional, Arthroderma benhamiae
[10] = test system: Cavia porcellus; experiment: In vivo antifungal activity by topical treatment of guinea pig dermatophytosis caused by Trichophyton mentagrophytes at a dose of 0.1%; type: functional
[11] = test system: Cavia porcellus; experiment: In vivo antifungal activity by topical treatment of guinea pig dermatophytosis caused by Trichophyton mentagrophytes at a dose of 0.5%; type: functional
[12] = test system: Cavia porcellus; experiment: In vivo antifungal activity by topical treatment of guinea pig dermatophytosis caused by Trichophyton mentagrophytes at a dose of 2%; type: functional
[13] = Antifungal activity against Trichophyton mentagrophytes.; type: functional, Arthroderma benhamiae; conditions: Trichophyton benhamiae
[14] = test system: Cavia porcellus; experiment: In vivo antifungal activity (% cure) was determined by topical treatment of guinea pig dermatophytosis caused by Trichophyton mentagrophytes at a dose of […]; type: functional
[15] = test system: Cavia porcellus; experiment: In vivo antifungal activity (% cure) was determined by topical treatment of guinea pig dermatophytosis caused by Trichophyton mentagrophytes at a dose of 0.5%; type: functional
[16] = test system: Cavia porcellus; experiment: In vivo antifungal activity (% cure) was determined by topical treatment of guinea pig dermatophytosis caused by Trichophyton mentagrophytes at a dose of 2%; type: functional
[17] = test system: Trichophyton quinckeanum; experiment: Antifungal activity was measured against Trichophyton mentagrophytes.; type: functional, ptrichophyton mentagrophytes
[18] = test system: Candida parapsilosis; experiment: Antifungal activity was measured against Candida parapsilosis.; conditions: Lodderomyces parapsilosis

Compound	MIC [1]	MIC [2]	MIC [3]	MIC [4]	MIC [5]	MIC [6]	MIC [7]	MIC [8]	MIC [9]	Activity [10]	Activity [11]	Activity [12]	MIC [13]	Activity [14]	Activity [15]	Activity [16]	MIC [17]	MIC [18]
CCOC(=O)/C=C/C=C/CN(C)Cc1cccc2ccccc12	3.1 µg/mL (≈ 10 µM)	> 100 µg/mL	< 1.6 µg/mL	> 100 µg/mL	3.1 µg/mL (≈ 10 µM)	100 µg/mL (≈ 323 µM)												
ON(C/C=C/c1ccccc1)Cc1cccc2ccccc12	50 µg/mL (≈ 173 µM)		12.5 µg/mL (≈ 43.2 µM)	> 100 µg/mL			> 100 µg/mL	> 100 µg/mL										
CN(C/C=C/c1ccccc1Cl)Cc1cccc2ccccc12	< 1.6 µg/mL	> 100 µg/mL		> 100 µg/mL	3.1 µg/mL (≈ 9.63 µM)		25 µg/mL (≈ 77.7 µM)		< 1.6 µg/mL									
CN(C/C=C/c1ccccc1)Cc1ccc(Cl)c2ccccc12	0.1 µg/mL (≈ 0.311 µM)	> 100 µg/mL		1.6 µg/mL (≈ 4.97 µM)	0.1 µg/mL (≈ 0.311 µM)		3.1 µg/mL (≈ 9.63 µM)			18%	44%	88%	0.05 µg/mL (≈ 0.155 µM)					
CCCC/C=C/C/C=C/CN(C)Cc1cccc2ccccc12	0.1 µg/mL (≈ 0.325 µM)	25 µg/mL (≈ 81.3 µM)	0.05 µg/mL (≈ 0.163 µM)	1.6 µg/mL (≈ 5.2 µM)	0.2 µg/mL (≈ 0.65 µM)		3.1 µg/mL (≈ 10.1 µM)				69%	100%		40%				
CN(C/C=C/C(=O)OCc1ccccc1)Cc1cccc2ccccc12	< 1.6 µg/mL	> 100 µg/mL	< 1.6 µg/mL	> 100 µg/mL	< 1.6 µg/mL		12.5 µg/mL (≈ 36.2 µM)			0%					0%	8%		
COc1ccc(CN(C)C/C=C/c2ccccc2)c2ccccc12	≤ 1.6 µg/mL	> 100 µg/mL		50 µg/mL (≈ 158 µM)	≤ 1.6 µg/mL		50 µg/mL (≈ 158 µM)				41%	65%	≤ 1.6 µg/mL					
Cc1ccc(CN(C)C/C=C/c2ccccc2)c2ccccc12	0.4 µg/mL (≈ 1.33 µM)	> 100 µg/mL		12.5 µg/mL (≈ 41.5 µM)	0.2 µg/mL (≈ 0.663 µM)		3.1 µg/mL (≈ 10.3 µM)						0.1 µg/mL (≈ 0.332 µM)					
CN(C/C=C/c1ccccc1F)Cc1cccc2ccccc12	≤ 1.6 µg/mL	100 µg/mL (≈ 327 µM)		12.5 µg/mL (≈ 40.9 µM)	≤ 1.6 µg/mL		6.25 µg/mL (≈ 20.5 µM)			0%	59%	94%					≤ 1.6 µg/mL	
CN(C/C=C/c1ccccc1)Cc1cccc2ccccc12 [NAFTIFINE]	0.1 µg/mL (≈ 0.348 µM)	12.5 µg/mL (≈ 43.5 µM)			0.1 µg/mL (≈ 0.348 µM)		1.6 µg/mL (≈ 5.57 µM)			35%	88%	100%	0.05 µg/mL (≈ 0.174 µM)					1.6 µg/mL (≈ 5.57 µM)

Reference: ChEMBL document CHEMBL1123199, “Synthesis and structure-activity relationships of naftifine-related allylamine antimycotics” (1986)
